In brackets after ≈: the same amount, converted by molar mass.
Key:
S. pneumoniae ATCC 51916 = experiment: MIC, S. pneumoniae; type: cell-based; settings: S. pneumoniae
S. aureus ATCC 13709 = experiment: MIC, antibacterial potency, S. aureus; type: cell-based; settings: S. aureus

| SMILES | MIC Spn52 (S. pneumoniae ATCC 51916) | MIC, SA (S. aureus ATCC 13709) |
| --- | --- | --- |
| CCc1[nH]c2nc(Sc3cnc4c(N)nc(N)nc4c3)nc(N3CC(O)C3)c2c1Cl.O=C(O)C(F)(F)F.O=C(O)C(F)(F)F [700,448] | 2 µg/mL | 1 µg/mL |
| CCc1[nH]c2nc(Sc3cnc4nccnc4c3)nc(N3CC(NC(=O)c4cnc[nH]4)C3)c2c1Cl [700,449] | 1 µg/mL (≈ 1.97 µM) | 1 µg/mL (≈ 1.97 µM) |
| CCOc1nc(Nc2cnc3c(c2)nnn3C(C)C)nc2[nH]c(CC)c(Br)c12.O=C(O)C(F)(F)F [700,450] | 4 µg/mL | ≤ 0.5 µg/mL |
| CCc1[nH]c2nc(Sc3cc(=O)n(CC(C)O)c(=O)[nH]3)nc(N3CC(O)C3)c2c1Br (stereo not shown) [700,451] | 4 µg/mL (≈ 8.04 µM) | 1 µg/mL (≈ 2.01 µM) |
| CCOc1nc(Nc2cnc3c(c2)c(=O)n(C)c(=O)n3C)nc2[nH]c(CC)c(Br)c12.O=C(O)C(F)(F)F [700,452] | > 64 µg/mL | > 64 µg/mL |
| CCc1[nH]c2nc(Sc3cnc4nccnc4c3)nc(N3CC(NC(=O)c4csc(N)n4)C3)c2c1Cl [700,453] | ≤ 0.5 µg/mL | ≤ 0.5 µg/mL |
| CCc1[nH]c2nc(Sc3cnc4nccnc4c3)nc(N3CC(NC(=O)c4cc(N)ccn4)C3)c2c1Cl [700,454] | 1 µg/mL (≈ 1.88 µM) | ≤ 0.5 µg/mL |
| CCc1[nH]c2nc(Sc3cnc4nccnc4c3)nc(NCCCn3ccnc3)c2c1Cl [700,455] | 2 µg/mL (≈ 4.29 µM) | 2 µg/mL (≈ 4.29 µM) |
| CCc1[nH]c2nc(Sc3cnc4nccnc4c3)nc(N3CCc4nc(N)sc4C3)c2c1Cl [700,456] | 4 µg/mL (≈ 8.06 µM) | ≤ 0.5 µg/mL |
| CCc1[nH]c2nc(Sc3cnc4nccnc4c3)nc(NC[C@H](C)O)c2c1Cl [700,457] | 2 µg/mL (≈ 4.81 µM) | 1 µg/mL (≈ 2.4 µM) |
| CCc1[nH]c2nc(Oc3cncnc3)nc(N3CC(O)C3)c2c1Cl.O=C(O)C(F)(F)F [700,458] | 8 µg/mL | 2 µg/mL |
| CCc1[nH]c2nc(Oc3cccnc3)nc(N3CCN(C(C)=O)CC3)c2c1Cl.O=C(O)C(F)(F)F [700,459] | 32 µg/mL | 16 µg/mL |
| CCc1[nH]c2nc(Cc3cccnc3)nc(N3CC(NC(=O)OC(C)(C)C)C3)c2c1Cl [700,461] | > 64 µg/mL | 1 µg/mL (≈ 2.26 µM) |
| CCc1[nH]c2nc(Sc3cnc4nccnc4c3)nc(N3CCC[C@H]3CN)c2c1Cl [700,462] | 32 µg/mL (≈ 72.6 µM) | > 64 µg/mL |
| CCc1[nH]c2nc(Sc3cnc4nccnc4c3)nc(N3CC(CN)C3)c2c1Cl [700,463] | 4 µg/mL (≈ 9.37 µM) | 2 µg/mL (≈ 4.68 µM) |
| CCc1[nH]c2nc(Sc3cnc4c(N)nc(N)nc4c3)nc(N3CC(C(=O)O)C3)c2c1Cl.O=C(O)C(F)(F)F.O=C(O)C(F)(F)F [700,464] | > 64 µg/mL | > 64 µg/mL |
| CCc1[nH]c2nc(Oc3cccnc3)nc(N3CCN(c4cnccn4)CC3)c2c1Cl.O=C(O)C(F)(F)F [700,465] | 32 µg/mL | 8 µg/mL |
| CCc1[nH]c2nc(Oc3cncnc3)nc(Oc3cncnc3)c2c1Cl.O=C(O)C(F)(F)F [700,466] | 16 µg/mL | 4 µg/mL |
| CCc1[nH]c2nc(Sc3cnc4nccnc4c3)nc(N3CC(CN)C3)c2c1Br [700,467] | 16 µg/mL (≈ 33.9 µM) | 4 µg/mL (≈ 8.49 µM) |
| CCc1[nH]c2nc(Sc3cnc4nccnc4c3)nc(N3CC(CNS(C)(=O)=O)C3)c2c1Br [700,468] | 1 µg/mL (≈ 1.82 µM) | ≤ 0.5 µg/mL |
| CCc1[nH]c2nc(Sc3cnc4nccnc4c3)nc(N3CC(N)C3)c2c1Br [700,469] | 2 µg/mL (≈ 4.37 µM) | 1 µg/mL (≈ 2.19 µM) |

| SMILES | MIC Spn52 (S. pneumoniae ATCC 51916) | MIC, SA (S. aureus ATCC 13709) |
| --- | --- | --- |
| CCc1[nH]c2nc(Sc3cnc4nccnc4c3)nc(N3CC(NS(C)(=O)=O)C3)c2c1Br [700,470] | 1 µg/mL (≈ 1.87 µM) | ≤ 0.5 µg/mL |
| CCc1[nH]c2nc(Sc3cnc4sc(NC(C)=O)nc4c3)nc(N3CC(N)C3)c2c1Br [700,471] | 8 µg/mL (≈ 15.4 µM) | 2 µg/mL (≈ 3.85 µM) |
| CCc1[nH]c2nc(Sc3cnc4c(N)nc(N)nc4c3)nc(N(C)CCNC)c2c1Cl.O=C(O)C(F)(F)F.O=C(O)C(F)(F)F [700,472] | 64 µg/mL | 64 µg/mL |
| CCOC(=O)Cc1nc(N)c2ncc(Sc3nc(N4CC(O)C4)c4c(Cl)c(CC)[nH]c4n3)cc2n1.O=C(O)C(F)(F)F.O=C(O)C(F)(F)F [700,473] | 64 µg/mL | 32 µg/mL |
| CCOc1nc(Cc2cccnc2)nc2[nH]c(CC)c(Cl)c12 [700,474] | 8 µg/mL (≈ 25.3 µM) | 8 µg/mL (≈ 25.3 µM) |
| CCOC(=O)c1nc2cc(Sc3nc(N4CC(O)C4)c4c(Br)c(CC)[nH]c4n3)cnc2n(C)c1=O [700,475] | > 64 µg/mL | > 64 µg/mL |
| CCOc1nc(Nc2cnc3c(c2)nnn3CC2CC2)nc2[nH]c(CC)c(Br)c12.O=C(O)C(F)(F)F [700,476] | > 64 µg/mL | > 64 µg/mL |
| CCc1[nH]c2nc(Oc3cncc(F)c3)nc(Oc3cncc(F)c3)c2c1Cl.O=C(O)C(F)(F)F [700,477] | 16 µg/mL | 1 µg/mL |
| CCc1[nH]c2nc(Cc3cccnc3)nc(N(C)C)c2c1Cl [700,478] | > 64 µg/mL | 64 µg/mL (≈ 203 µM) |
| CCc1[nH]c2nc(Cc3cccnc3)nc(Oc3cccnc3)c2c1Cl [700,479] | 32 µg/mL (≈ 87.5 µM) | 4 µg/mL (≈ 10.9 µM) |
| CCc1[nH]c2nc(Sc3ccc4c(N)nc(N)nc4c3)nc(N3CCC3)c2c1Cl.O=C(O)C(F)(F)F.O=C(O)C(F)(F)F [700,480] | > 64 µg/mL | 16 µg/mL |
| CCc1[nH]c2nc(Sc3cnc4nccnc4c3)nc(OC3CNC3)c2c1Br [700,481] | 2 µg/mL (≈ 4.36 µM) | 8 µg/mL (≈ 17.5 µM) |
| CCc1[nH]c2nc(Nc3cnc4c(c3)nnn4C(C)C)nc(N3CC(O)C3)c2c1Br.O=C(O)C(F)(F)F [700,482] | > 64 µg/mL | > 64 µg/mL |
| CCOc1nc(Nc2ccc(Cl)c3ncccc23)nc2[nH]c(CC)c(Br)c12.O=C(O)C(F)(F)F [700,483] | 32 µg/mL | 32 µg/mL |
| CCc1[nH]c2nc(Nc3cnc4c(c3)nnn4C(C)C)nc(N3CC(N)C3)c2c1Br.O=C(O)C(F)(F)F.O=C(O)C(F)(F)F [700,484] | 8 µg/mL | 4 µg/mL |
| CCc1[nH]c2nc(Nc3cnc4c(c3)nnn4C(C)C)nc(N3CC(NC(=O)OC(C)(C)C)C3)c2c1Br.O=C(O)C(F)(F)F [700,485] | > 64 µg/mL | 4 µg/mL |
| CCc1[nH]c2nc(Sc3cnc4nccnc4c3)nc(OC3CNC3)c2c1Cl [700,486] | 8 µg/mL (≈ 19.3 µM) | 16 µg/mL (≈ 38.7 µM) |
| CCc1[nH]c2nc(Sc3cnc4nccnc4c3)nc(N3CC(CNS(C)(=O)=O)C3)c2c1Cl [700,487] | ≤ 0.5 µg/mL | ≤ 0.5 µg/mL |
| CCNC(=O)NC1CN(c2nc(Sc3cnc4nccnc4c3)nc3[nH]c(CC)c(Cl)c23)C1 [700,490] | 1 µg/mL (≈ 2.07 µM) | > 64 µg/mL |
| CCNC(=O)NCC1CN(c2nc(Sc3cnc4nccnc4c3)nc3[nH]c(CC)c(Cl)c23)C1 [700,491] | 1 µg/mL (≈ 2.01 µM) | ≤ 0.5 µg/mL |
| CCc1[nH]c2nc(Sc3cnc4c(N)nc(N)nc4c3)nc(OCc3cccnc3)c2c1Cl.O=C(O)C(F)(F)F.O=C(O)C(F)(F)F [700,492] | > 64 µg/mL | 8 µg/mL |

| SMILES | MIC Spn52 (S. pneumoniae ATCC 51916) | MIC, SA (S. aureus ATCC 13709) |
| --- | --- | --- |
| CCc1[nH]c2nc(Sc3cnc4c(N)nc(N)nc4c3)nc(OCCn3ccnc3)c2c1Cl.O=C(O)C(F)(F)F.O=C(O)C(F)(F)F [700,493] | > 64 µg/mL | > 64 µg/mL |
| CCc1[nH]c2nc(Sc3cnc4c(N)nc(C)nc4c3)nc(OCCn3ccnc3)c2c1Cl.O=C(O)C(F)(F)F [700,494] | > 64 µg/mL | > 64 µg/mL |
| CCc1[nH]c2nc(Cc3cccnc3)nc(N3CC(N)C3)c2c1Cl [700,495] | > 64 µg/mL | 64 µg/mL (≈ 187 µM) |
| CCc1[nH]c2nc(Nc3cnc4c(c3)nnn4CC3CC3)nc(N3CC(S(=O)(=O)CC4CC4)C3)c2c1Br.O=C(O)C(F)(F)F [700,496] | > 64 µg/mL | > 64 µg/mL |
| CCc1[nH]c2nc(Sc3cnc4nccnc4c3)nc(N3CC[C@H](N(C)C)C3)c2c1Cl.O=C(O)C(F)(F)F [700,497] | 4 µg/mL | 1 µg/mL |
| CCc1[nH]c2nc(Nc3cnc4c(c3)nnn4CC3CC3)nc(N3CC(O)C3)c2c1Br.O=C(O)C(F)(F)F [700,498] | > 64 µg/mL | 16 µg/mL |
| CCc1[nH]c2nc(Sc3cnc4nccnc4c3)nc(N3CC(CNC(=N)N)C3)c2c1Cl.O=C(O)C(F)(F)F [700,502] | > 64 µg/mL | 16 µg/mL |
| CCc1[nH]c2nc(Sc3cnc4nccnc4c3)nc(N3CC(NC(=N)N)C3)c2c1Cl.O=C(O)C(F)(F)F [700,503] | > 64 µg/mL | 16 µg/mL |
| CCc1[nH]c2nc(Sc3cnc4nccnc4c3)nc(N3CC(NC(=O)CN4CCNCC4)C3)c2c1Cl.O=C(O)C(F)(F)F.O=C(O)C(F)(F)F [700,504] | 32 µg/mL | 4 µg/mL |
| CCc1[nH]c2nc(Sc3cnc4nccnc4c3)nc(N3CC(NC(=O)CNC4CCOC4=O)C3)c2c1Cl.O=C(O)C(F)(F)F (stereo not shown) [700,505] | 32 µg/mL | 4 µg/mL |
| CCc1[nH]c2nc(Sc3cnc4nccnc4c3)nc(N3CC(NC(=O)COn4nnc5ccccc54)C3)c2c1Cl [700,506] | 1 µg/mL (≈ 1.7 µM) | ≤ 0.5 µg/mL |
| CCc1[nH]c2nc(Sc3cnc4c(C(C)C)nc(N)nc4c3)nc(OCCn3ccnc3)c2c1Cl.O=C(O)C(F)(F)F [700,507] | > 64 µg/mL | > 64 µg/mL |
| CCc1[nH]c2nc(Sc3cnc4nccnc4c3)nc(NCCNC(=O)OC(C)(C)C)c2c1Cl.O=C(O)C(F)(F)F [700,508] | 4 µg/mL | 2 µg/mL |
| CCc1[nH]c2nc(Sc3cnc4nccnc4c3)nc(NCCN)c2c1Cl.O=C(O)C(F)(F)F [700,509] | 16 µg/mL | 16 µg/mL |
| CCc1[nH]c2nc(Sc3cnc4nccnc4c3)nc(NCCN3CCCC3)c2c1Cl.O=C(O)C(F)(F)F [700,510] | > 64 µg/mL | > 64 µg/mL |
| CCc1[nH]c2nc(Sc3cnc4nccnc4c3)nc(NCCN3CCNCC3)c2c1Cl.O=C(O)C(F)(F)F.O=C(O)C(F)(F)F [700,511] | > 64 µg/mL | > 64 µg/mL |
| CCc1[nH]c2nc(Sc3cnc4nccnc4c3)nc(NCCNC)c2c1Cl.O=C(O)C(F)(F)F [700,512] | > 64 µg/mL | > 64 µg/mL |
| CCc1[nH]c2nc(Sc3cnc4nccnc4c3)nc(NCCN(C)C)c2c1Cl.O=C(O)C(F)(F)F [700,513] | 32 µg/mL | > 64 µg/mL |
| CCc1[nH]c2nc(Sc3cnc4c(N)nc(C)nc4c3)nc(N3CC(O)C3)c2c1Cl.O=C(O)C(F)(F)F [700,514] | ≤ 0.5 µg/mL | ≤ 0.5 µg/mL |
| CCc1[nH]c2nc(Sc3cnc4c(N)nc(C)nc4c3)nc(N3CC(N)C3)c2c1Cl.O=C(O)C(F)(F)F [700,515] | 1 µg/mL | 1 µg/mL |
